From US6905852B1, “Herbicide-resistant protoporphyrinogen oxidase isolated from Nicotiana tabacum” (Nihon Nohyaku Co., Ltd., priority 1997, dated 2005) come the findings set out here.

Where two headings read alike, the source gives them in different places.

The target in experiment [1] is T1, E. coli SASX38 strain having pCR-RC with tobacco resistant type protoporphyrinogen oxidase gene (Nicotiana tabacum, UniProt O24163, A174P/A191P/A231V/T382S).
T1 construct: expressed in transfected cells; host or cells: E. coli SASX38 (hemG-deficient) carrying pCR-RC
T1 sequence (O24163 whole entry A174P/A191P/A231V/T382S): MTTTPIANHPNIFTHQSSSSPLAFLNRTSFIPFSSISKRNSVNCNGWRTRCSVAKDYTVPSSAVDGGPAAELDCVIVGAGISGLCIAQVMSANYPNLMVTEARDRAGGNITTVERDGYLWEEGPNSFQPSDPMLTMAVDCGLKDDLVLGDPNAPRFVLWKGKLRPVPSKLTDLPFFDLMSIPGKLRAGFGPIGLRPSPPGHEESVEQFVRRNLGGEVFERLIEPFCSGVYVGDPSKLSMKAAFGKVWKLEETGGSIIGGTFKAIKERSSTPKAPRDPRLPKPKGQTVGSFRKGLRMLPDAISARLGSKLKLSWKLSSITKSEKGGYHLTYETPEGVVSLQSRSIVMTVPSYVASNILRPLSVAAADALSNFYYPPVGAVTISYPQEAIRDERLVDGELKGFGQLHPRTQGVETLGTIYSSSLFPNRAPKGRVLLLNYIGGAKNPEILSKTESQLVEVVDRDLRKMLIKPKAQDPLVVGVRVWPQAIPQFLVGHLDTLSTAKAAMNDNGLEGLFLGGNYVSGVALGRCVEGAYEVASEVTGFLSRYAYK
Briefly: Growth inhibition of E. coli SASX38 (liquid culture with shaking). Format: cell-based. The protocol: (§1) The E. coli SASX38 strain containing either of the above-described two kinds of plasmid was cultured with shaking in LB liquid medium containing 50 μg/ml of ampicillin at 28° C. for overnight.

The test system of experiment [2] is E. coli SASX38 strain having pCR-RC with tobacco resistant type protoporphyrinogen oxidase gene. Described as above. Format: cell-based, Nicotiana tabacum. The conditions noted are these: for R/S b) Tobacco: Resistant type/Wild type; for Superiority c): b/a: tobacco R/S over Arabidopsis thaliana R/S. The protocol:
as §1

The target in experiment [3] is T2, E. coli SASX38 strain having pBAtPX-RC with Arabidopsis thaliana resistant type protoporphyrinogen oxidase cDNA (Arabidopsis thaliana, UniProt P55826, A220V).
T2 construct: expressed in transfected cells; host or cells: E. coli SASX38 (hemG-deficient) carrying pBAtPX-RC (pBluescript SK(-))
T2 sequence (P55826 35-537 A220V): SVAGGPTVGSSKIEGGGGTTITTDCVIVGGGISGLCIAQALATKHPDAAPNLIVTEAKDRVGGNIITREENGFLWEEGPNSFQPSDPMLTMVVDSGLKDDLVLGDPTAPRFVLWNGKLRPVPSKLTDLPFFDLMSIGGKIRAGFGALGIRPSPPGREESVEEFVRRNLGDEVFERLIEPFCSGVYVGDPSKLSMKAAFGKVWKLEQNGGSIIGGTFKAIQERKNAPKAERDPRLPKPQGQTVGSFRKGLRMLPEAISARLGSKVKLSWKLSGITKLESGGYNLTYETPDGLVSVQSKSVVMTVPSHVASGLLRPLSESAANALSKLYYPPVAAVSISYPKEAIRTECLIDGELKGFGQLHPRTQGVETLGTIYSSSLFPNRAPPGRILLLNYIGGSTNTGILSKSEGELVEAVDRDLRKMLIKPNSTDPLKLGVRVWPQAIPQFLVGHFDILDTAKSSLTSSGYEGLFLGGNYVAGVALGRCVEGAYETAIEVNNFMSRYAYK
The experiment is described as above. Format: cell-based. The conditions noted are these: for R/S a) Arabidopsis thaliana: Resistant type/Wild type. The protocol:
as §1

The target in experiment [4] is T3, E. coli SASX38 strain having pCR-HC with tobacco wild type protoporphyrinogen oxidase cDNA (Nicotiana tabacum, UniProt O24163).
T3 construct: expressed in transfected cells; host or cells: E. coli SASX38 (hemG-deficient) carrying pCR-HC
T3 sequence (O24163 51-548): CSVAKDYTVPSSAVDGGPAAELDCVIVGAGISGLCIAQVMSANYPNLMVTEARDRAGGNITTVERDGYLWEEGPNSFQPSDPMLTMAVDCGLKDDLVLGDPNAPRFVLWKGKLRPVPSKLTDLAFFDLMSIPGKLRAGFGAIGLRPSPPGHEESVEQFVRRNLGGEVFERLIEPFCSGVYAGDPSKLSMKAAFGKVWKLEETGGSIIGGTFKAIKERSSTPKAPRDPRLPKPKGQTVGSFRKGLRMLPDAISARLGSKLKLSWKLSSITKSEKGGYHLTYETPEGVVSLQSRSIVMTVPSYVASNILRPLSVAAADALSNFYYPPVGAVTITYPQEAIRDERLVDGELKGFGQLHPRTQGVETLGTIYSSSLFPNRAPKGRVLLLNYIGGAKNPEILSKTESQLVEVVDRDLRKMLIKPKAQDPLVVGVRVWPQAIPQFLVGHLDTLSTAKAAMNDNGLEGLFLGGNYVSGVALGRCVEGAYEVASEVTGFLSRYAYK
The experiment is described as above. Type of experiment: cell-based. The protocol:
as §1

In experiment [5] the target is T4, E. coli SASX38 strain having pBAtPX-C with Arabidopsis thaliana wild type protoporphyrinogen oxidase gene (Arabidopsis thaliana, UniProt P55826).
T4 construct: expressed in transfected cells; host or cells: E. coli SASX38 (hemG-deficient) carrying pBAtPX-C (pBluescript SK(-))
T4 sequence (P55826 35-537): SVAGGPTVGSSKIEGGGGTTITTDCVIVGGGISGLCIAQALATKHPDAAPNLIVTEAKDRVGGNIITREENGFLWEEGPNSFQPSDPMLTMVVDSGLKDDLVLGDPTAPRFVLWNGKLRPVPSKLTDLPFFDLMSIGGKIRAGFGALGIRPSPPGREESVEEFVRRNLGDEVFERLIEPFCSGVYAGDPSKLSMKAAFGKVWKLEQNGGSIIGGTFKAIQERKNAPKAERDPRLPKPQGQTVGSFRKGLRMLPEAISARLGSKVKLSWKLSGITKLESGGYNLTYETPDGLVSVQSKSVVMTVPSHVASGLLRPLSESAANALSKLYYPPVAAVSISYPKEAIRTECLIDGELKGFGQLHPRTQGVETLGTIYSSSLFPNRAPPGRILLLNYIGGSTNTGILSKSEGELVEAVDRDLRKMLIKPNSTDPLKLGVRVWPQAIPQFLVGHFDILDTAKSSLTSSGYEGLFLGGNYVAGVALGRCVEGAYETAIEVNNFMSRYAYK
Described as above. Type of experiment: cell-based. The method, then: as §1

Another experiment has as its system ETR-056. The experiment can be described thus: MIC on MS agar medium, cross-resistance to herbicides. Format: cell-based, Nicotiana tabacum. The text has this: (§2) Further, cross-resistance of a resistant strain tolerant to herbicides with various modes of action was examined. Sensitivity to fomesafen (trade mark: FLEX) and oxadiazon (trade mark: RONSTAR), which are photobleaching herbicide and accumulate protoporphyrin IX; pyrazoxyfen (trademark: PAICER) which is a chlorophyll synthesis inhibitor and causes bleaching; DPX-84 and bialaphos (trademark: BASTA) and glyphosate (trademark: ROUNDUP) which are an inhibitor of the amino acid synthesis; butachlor (trademark: MACHETE) which is a protein synthesis inhibitor; propanil (trademark: STAM) which is an inhibitor of light synthesis photochemical system II and paraquat (trademark: PREEGLOX) which is an inhibitor of photosystem I and produces an active oxygen was compared. Into MS agar medium containing each herbicides, each resistant strain was transplanted and minimum inhibition concentration (MIC) was measured. […] From the above results, ETR-056 was thought to have resistance to an active oxygen caused by overproduction of superoxide dismutase, and ETR-253 was thought to have resistance to many herbicides caused by decreasing of a membrane permeability, and ETR-245 was thought to have resistance caused by mutation of a target enzyme or overproduction of a target enzyme.
(§3) MIC of compound A to the sensitive cell lines, ETR-056, ETR-245 and ETR-253 were measured.

The subject of another experiment is ETR-245. Described as above. Type of experiment: cell-based, Nicotiana tabacum.
Text: as §2, §3

The subject of the next experiment is ETR-253. The description is as above. Format: cell-based, Nicotiana tabacum.
Text: as §2, §3

The next experiment relates to Sensitive strain. The experiment is described as above. Type of experiment: cell-based, Nicotiana tabacum. The settings on record: Sensitive strain.
Text: as §2, §3

In the case of `Cn1nc(-c2ccc(Cl)cc2F)c(Cl)c1OC(F)F` [Comp.G, 4-chloro-3-(4-chloro-2-fluorophenyl)-5-difluorom ethoxy-1-methyl-1H-pyrazole], the IC50 in experiment [1] is 17000 nM; in experiment [3] it was 8700 nM; in [4], 3.1 nM; in experiment [5] it was 19 nM. Further, the “R/S b) Tobacco” value in [2] is reported as 5,500. For the same compound, in [2], the “Superiority c)” value is reported as 12.0. Also, the “R/S a) Arabidopsis thaliana” value in [3] stood at 460.

Turning to `COC(=O)c1ccccc1CS(=O)(=O)NC(=O)Nc1nc(OC)cc(OC)n1` [DPX-84], the “MIC (ppm)” value worked out at 0.01 ppm with ETR-056, 0.01 ppm against ETR-245, 0.1 ppm in the experiment with ETR-253 and 0.01 ppm in the experiment with Sensitive strain.

`CS(=O)(=O)NC(=O)c1cc(Oc2ccc(C(F)(F)F)cc2Cl)ccc1[N+](=O)[O-]` [fomesafen]: the “MIC (ppm)” value worked out at 4 ppm against ETR-056, 4 ppm in the experiment on ETR-245, 4 ppm in the experiment with ETR-253 and 0.4 ppm with Sensitive strain.

Consider `CCCCOCN(C(=O)CCl)c1c(CC)cccc1CC` [butachlor], for which the “MIC (ppm)” value in the experiment with ETR-056, in the experiment on ETR-245, in the experiment with ETR-253 and against Sensitive strain was 100 ppm throughout.

Consider `CCOC(=O)C(C)Oc1cc(-c2nn(C)c(OC(F)F)c2Cl)c(F)cc1Cl` (stereo not drawn) [Comp.E, ethyl 2-[2-chloro-5-(4-chloro-5-difluoromethoxy-1-methyl-1H-pyrazol-3-yl)-4-fluorophenoxy]propionate], for which the IC50 in experiment [1] amounted to 6300 nM; in [3], 4000 nM; in [4] it was 0.52 nM; in experiment [5], 4.2 nM. The “R/S b) Tobacco” value in [2] is 12,000. Also, in [2], the “Superiority c)” value stood at 12.6. For the same compound, the “R/S a) Arabidopsis thaliana” value in experiment [3] is reported as 950.

As to `CC(C)OC(=O)c1cc(-c2nn(C)c(C(F)(F)F)c2Br)c(F)cc1Cl` [Comp.F, 1-methylethyl 5-[4-bromo-1-methyl-5-(trifluoromethyl)-1H-pyrazol-3-yl]-2-chloro-4-fluorobenzoate], the IC50 in [1] was determined as 15000 nM; in experiment [3] it was 6400 nM; in experiment [4] (E. coli liquid culture method with shaking, read-out: I50 (nM) Tobacco Wild) it was 3.2 nM; in experiment [5] (E. coli liquid culture method with shaking, read-out: I50 (nM) Arabidopsis thaliana Wild), 23 nM. For the same compound, the “R/S b) Tobacco” value in experiment [2] is 4,700. Further, in experiment [2], the “Superiority c)” value is 16.8. In experiment [3], the “R/S a) Arabidopsis thaliana” value is given as 280.

For the compound `CCC(=O)Nc1ccc(Cl)c(Cl)c1` [propanil], the “MIC (ppm)” value with ETR-056, in the experiment with ETR-245, against ETR-253 and with Sensitive strain was 100 ppm in each case.

Consider `Cc1nn(C)c(OCC(=O)c2ccccc2)c1C(=O)c1ccc(Cl)cc1Cl` [pyrazoxyfen], for which the “MIC (ppm)” value in the experiment with ETR-056 turned out to be 100 ppm; in the experiment on ETR-245 it was 100 ppm; against ETR-253 it was 200 ppm; against Sensitive strain, 100 ppm.

Take `O=C(O)CNCP(=O)(O)O` [glyphosate]: the “MIC (ppm)” value in the experiment on ETR-056 is 230 ppm; with ETR-245, 230 ppm; against ETR-253, 1000 ppm; against Sensitive strain, 230 ppm.

Regarding `C#CCOc1cc(-c2nn(C)c(OC(F)F)c2Cl)c(F)cc1Cl` [Comp.D, 4-chloro-3-[4-chloro-2-fluoro-5-(2-propynyl)oxyphenyl]-5-difluoromethoxy-1-methyl-1H-pyrazole], the IC50 came out at 670 nM in experiment [1], 280 nM in [3], 0.027 nM in experiment [4] and 0.14 nM in [5]. Moreover, the “R/S b) Tobacco” value in [2] is 25,000. In experiment [2], the “Superiority c)” value stood at 12.5. Moreover, in [3], the “R/S a) Arabidopsis thaliana” value was 2,000.

Turning to `C[n+]1ccc(-c2cc[n+](C)cc2)cc1` [paraquat], the “MIC (ppm)” value with ETR-056 came out at 100 ppm; in the experiment on ETR-245, 10 ppm; in the experiment on ETR-253 it was 10 ppm; in the experiment with Sensitive strain, 10 ppm.

For the compound `COc1cc(-c2nn(C)c(OC(F)F)c2Cl)c(F)cc1Cl` [Comp.C, 4-chloro-3-(4-chloro-2-fluoro-5-methoxyphenyl)-5-difluoromethoxy-1-methyl-1H-pyrazole], the IC50 came to 2200 nM in experiment [1], 1800 nM in experiment [3], 0.25 nM in [4] and 3 nM in experiment [5]. In addition, the “R/S b) Tobacco” value in [2] was 8,800. For the same compound, the “Superiority c)” value in experiment [2] is 14.7. For the same compound, in [3], the “R/S a) Arabidopsis thaliana” value was found to be 600.

Consider `CCOC(=O)C(C)Nc1cc(-c2nn(C)c(OC(F)F)c2Cl)c(Cl)cc1Cl` (stereo not drawn) [Comp.B, ethyl 2-[5-(4-chloro-5-difluoromethoxy-1-methyl-1H-pyrazol-3-yl)-2,4-dichloro-phenylamino]propionate], for which the IC50 is above 20000 nM in [1], 18000 nM in [3], 2.2 nM in [4] and 21 nM in experiment [5]. In addition, the “R/S b) Tobacco” value in [2] is given as 9,100. The “Superiority c)” value in [2] is on record as above 10.6. Besides, the “R/S a) Arabidopsis thaliana” value in experiment [3] is listed as 860.

Regarding `CC(C)Oc1cc(-n2nc(C(C)(C)C)oc2=O)c(Cl)cc1Cl` [oxadiazon], the “MIC (ppm)” value against ETR-056 is listed as 1000 ppm; with ETR-245 it was 1000 ppm; against ETR-253, 1000 ppm; against Sensitive strain it was 1 ppm.

Regarding `C[C@H](NC(=O)[C@H](C)NC(=O)[C@@H](N)CCP(C)(=O)O)C(=O)O` [bialaphos], the “MIC (ppm)” value against ETR-056 turned out to be 1 ppm; in the experiment with ETR-245 it was 1 ppm; in the experiment on ETR-253, 10 ppm; in the experiment on Sensitive strain, 10 ppm.
